In US12227501B2, “3-amino-2-[2-(acylamino)pyridin-4-yl]-1,5,6,7-tetrahydro-4h-pyrrolo[3,2-c]pyridin-4-one as CSNK1 inhibitors” (Bayer Aktiengesellschaft, priority 2019, dated 2025):
Several values for one entry are separate records, joined by “and”; a condition that tells them apart may be missing. Equal entries are not always repeated. Structures can show the parent of a compound that is named as a salt. Where two headings read alike, the source gives them in different places.

Key:
Type in all cases: biochemical
human CSNK1A1 [1] = molecular target: T1, human CSNK1A1 (Homo sapiens (Human), UniProt P48729); assay: CSNK1A1 Assay 2 (ADP-Glo, 1 μM ATP); details: substrate biotin-Ahx-KRRRAL-pS-VASLPGL, read-out: CSNK1A1 Assay 2 IC50 [mol/l] (median)
Procedure: CSNK1A1-inhibitory activity of compounds of the present invention in presence of 1 μM adenosine-tri-phosphate (ATP) was quantified employing the CSNK1A1 assay as described in the following paragraphs. In essence, the enzyme activity is measured by quantification of the adenosine-di-phosphate (ADP), which is generated as a co-product of the enzyme reaction, via the “ADP-Glo™ Kinase Assay” kit from the company Promega. This detection system works as follows: In a first step the ATP not consumed in the kinase reaction is quantitatively converted to cAMP employing an adenylate cyclase (“ADP-Glo-reagent”), then the adenylate cyclase is stopped and the ADP generated in the kinase reaction converted to ATP which generates in a luciferase-based reaction a glow-luminescence signal (“Kinase Detection Reagent”). Recombinant fusion protein of N-terminal Glutathion-S-Transferase (GST) and full-length human CSNK1A1, expressed by baculovirus infected insect cells and purified via Glutathion affinity chromatography, was purchased from Life Technologies (product no. PV4174) and used as enzyme. As substrate for the kinase reaction the biotinylated peptide biotin-Ahx-KRRRAL-pS-VASLPGL (C-terminus in amide form) was used which can be purchased e.g. from the company Biosyntan (Berlin-Buch, Germany).
For the assay 50 nl of a 100 fold concentrated solution of the test compound in DMSO was pipetted into a white 1536-well microtiter plate (Greiner Bio-One, Frickenhausen, Germany), 2 μL of a solution of CSNK1A1 in aqueous assay buffer [50 mM HEPES pH 7.5, 10% (v/v) glycerol, 10 mM MgCl2, 50 mM NaCl, 1 mM dithiothreitol, 0.01% (w/v) bovine serum albumin, 0.01% (v/v) Triton X-100] were added and the mixture was incubated for 15 min at 22° C. to allow pre-binding of the test compounds to the enzyme before the start of the kinase reaction. […] The concentration of CSNK1A1 was adjusted depending of the activity of the enzyme lot and was chosen appropriate to have the assay in the linear range, a typical concentrations are about 0.0375 ng/μL. The reaction was stopped by the addition of 2.5 μL of “ADP-Glo-reagent” (1:1.5 fold diluted with water) and the resulting mixture was incubated at 22° C. for 1 h to convert the ATP not consumed in the kinase reaction completely […]. Subsequently 2.5 μL of the “kinase detection reagent” (1.2 fold more concentrated than recommended by the producer) were added, the resulting mixture was incubated at 22° C. for 1 h and then the luminescence measured with a suitable measurement instrument (e.g. Viewlux™ from Perkin-Elmer). The amount of emitted light was taken as a measure for the amount of ADP generated and thereby for the activity of the CSNK1A1.

human CSNK1A1 [2] = molecular target: T1, human CSNK1A1; assay: CSNK1A1 High ATP Assay (ADP-Glo, 1 mM ATP); details: read-out: CSNK1A1 high ATP assay IC50 [mol/l] (median)
Procedure: CSNK1A1-inhibitory activity of compounds of the present invention in presence of 1 mM adenosine-tri-phosphate (ATP) was quantified employing the CSNK1A1-high-ATP-assay as described in the following paragraphs. In essence, the enzyme activity is measured by quantification of the adenosine-di-phosphate (ADP), which is generated as a co-product of the enzyme reaction, via the “ADP-Glo™ Kinase Assay” kit from the company Promega. This detection system works as follows: In a first step the ATP not consumed in the kinase reaction is quantitatively converted to cAMP employing an adenylate cyclase (“ADP-Glo-reagent”), then the adenylate cyclase is stopped and the ADP generated in the kinase reaction converted to ATP which generates in a luciferase-based reaction a glow-luminescence signal (“Kinase Detection Reagent”).
Recombinant fusion protein of N-terminal Glutathion-S-Transferase (GST) and full-length human CSNK1A1, expressed by baculovirus infected insect cells and purified via Glutathion affinity chromatography, was purchased from Life Technologies (product no. PV4174) and used as enzyme. As substrate for the kinase reaction the biotinylated peptide biotin-Ahx-KRRRAL-pS-VASLPGL (C-terminus in amide form) was used which can be purchased e.g. from the company Biosyntan (Berlin-Buch, Germany).
For the assay 50 nl of a 100 fold concentrated solution of the test compound in DMSO was pipetted into a white low volume 384-well microtiter plate (Greiner Bio-One, Frickenhausen, Germany), 2 μL of a solution of CSNK1A1 in aqueous assay buffer [50 mM HEPES pH 7.5, 10% (v/v) glycerol, 10 mM MgCl2, 50 mM NaCl, 1 mM dithiothreitol, 0.01% (w/v) bovine serum albumin, 0.01% (v/v) Triton X-100] were added and the mixture was incubated for 15 min at 22° C. to allow pre-binding of the test compounds to the enzyme before the start of the kinase reaction. […] The concentration of CSNK1A1 was adjusted depending of the activity of the enzyme lot and was chosen appropriate to have the assay in the linear range, a typical concentration is about 0.4 ng/μL. The reaction was stopped by the addition of 2.5 μL of “ADP-Glo-reagent” (1:1.5 fold diluted with water) and the resulting mixture was incubated at 22° C. for 1 h to convert the ATP not consumed in the kinase reaction completely […]. Subsequently 2.5 μL of the “kinase detection reagent” (1.2 fold more concentrated than recommended by the producer) were added, the resulting mixture was incubated at 22° C. for 1 h and then the luminescence measured with a suitable measurement instrument (e.g. Viewlux™ from Perkin-Elmer). The amount of emitted light was taken as a measure for the amount of ADP generated and thereby for the activity of the CSNK1A1.

[3] = molecular target: wild-type Epidermal Growth Factor Receptor (EGFR) (Homo sapiens (Human), UniProt P00533); assay: WT-EGFR Kinase Assay (TR-FRET, 2 mM ATP)
human CSNK1D = human CSNK1D (Homo sapiens (Human), UniProt P48730); assay: CSNK1D Assay (ADP-Glo, 1 μM ATP); details: read-out: CSNK1D IC50 [mol/l] (median)
Procedure: CSNK1 D-inhibitory activity of compounds of the present invention in presence of 1 μM adenosine-tri-phosphate (ATP) was quantified employing the CSNK1D assay as described in the following paragraphs. In essence, the enzyme activity is measured by quantification of the adenosine-di-phosphate (ADP), which is generated as a co-product of the enzyme reaction, via the “ADP-Glo™ Kinase Assay” kit from the company Promega. This detection system works as follows: In a first step the ATP not consumed in the kinase reaction is quantitatively converted to cAMP employing an adenylate cyclase (“ADP-Glo-reagent”), then the adenylate cyclase is stopped and the ADP generated in the kinase reaction converted to ATP which generates in a luciferase-based reaction a glow-luminescence signal (“Kinase Detection Reagent”). Recombinant fusion protein of N-terminal Glutathion-S-Transferase (GST) and full-length human CSNK1D, expressed by baculovirus infected insect cells and purified via Glutathion affinity chromatography, was purchased from Life Technologies (product no. PV3665) and used as enzyme. As substrate for the kinase reaction the biotinylated peptide Btn-Ahx-[…] (C-terminus in amide form) was used which can be purchased e.g. from the company Biosyntan (Berlin-Buch, Germany).
For the assay 50 nl of a 100 fold concentrated solution of the test compound in DMSO was pipetted into a white 1536-well microtiter plate (Greiner Bio-One, Frickenhausen, Germany), 2 μL of a solution of CSNK1D in aqueous assay buffer [50 mM HEPES pH 7.5, 10% (v/v) glycerol, 10 mM MgCl2, 50 mM NaCl, 1 mM dithiothreitol, 0.01% (w/v) bovine serum albumin, 0.01% (v/v) Triton X-100] were added and the mixture was incubated for 15 min at 22° C. to allow pre-binding of the test compounds to the enzyme before the start of the kinase reaction. […] The concentration of CSNK1 D was adjusted depending of the activity of the enzyme lot and was chosen appropriate to have the assay in the linear range, a typical concentration is about 0.5 ng/μL. The reaction was stopped by the addition of 2.5 μL of “ADP-Glo-reagent” (1:1.5 fold diluted with water) and the resulting mixture was incubated at 22° C. for 1 h to convert the ATP not consumed in the kinase reaction completely […]. Subsequently 2.5 μL of the “kinase detection reagent” (1.2 fold more concentrated than recommended by the producer) were added, the resulting mixture was incubated at 22° C. for 1 h and then the luminescence measured with a suitable measurement instrument (e.g. Viewlux™ from Perkin-Elmer). The amount of emitted light was taken as a measure for the amount of ADP generated and thereby for the activity of the CSNK1D.

[4] = EGFR Wildtyp- 2 mM ATP IC50 [mol/l] (median)
[5] = read-out: EGFR Wildtyp- 2 mM ATP IC50 [mol/l] (median)

T1 sequence (P48729 whole entry): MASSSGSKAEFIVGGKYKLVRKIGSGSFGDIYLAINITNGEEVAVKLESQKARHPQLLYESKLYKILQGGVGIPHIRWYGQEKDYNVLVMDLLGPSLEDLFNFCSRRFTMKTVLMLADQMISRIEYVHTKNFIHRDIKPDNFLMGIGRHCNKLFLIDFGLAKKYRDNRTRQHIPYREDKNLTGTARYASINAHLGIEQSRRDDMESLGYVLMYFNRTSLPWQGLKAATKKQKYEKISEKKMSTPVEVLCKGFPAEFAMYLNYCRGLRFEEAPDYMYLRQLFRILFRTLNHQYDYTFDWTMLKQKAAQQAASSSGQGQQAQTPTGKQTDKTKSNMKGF
Chain of human CSNK1D (P48730 whole entry): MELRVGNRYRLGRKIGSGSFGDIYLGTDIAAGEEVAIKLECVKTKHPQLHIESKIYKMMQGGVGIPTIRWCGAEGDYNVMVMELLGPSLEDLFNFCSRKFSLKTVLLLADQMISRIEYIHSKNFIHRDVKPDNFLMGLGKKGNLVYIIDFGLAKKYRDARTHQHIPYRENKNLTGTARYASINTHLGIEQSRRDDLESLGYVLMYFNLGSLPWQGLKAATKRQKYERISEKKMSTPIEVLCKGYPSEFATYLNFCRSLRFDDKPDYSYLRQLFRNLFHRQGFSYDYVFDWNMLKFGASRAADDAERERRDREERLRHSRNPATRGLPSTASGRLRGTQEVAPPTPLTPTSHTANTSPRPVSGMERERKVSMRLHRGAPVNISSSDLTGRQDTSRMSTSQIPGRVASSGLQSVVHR
Chain of wild-type Epidermal Growth Factor Receptor (EGFR) (P00533 669-1210): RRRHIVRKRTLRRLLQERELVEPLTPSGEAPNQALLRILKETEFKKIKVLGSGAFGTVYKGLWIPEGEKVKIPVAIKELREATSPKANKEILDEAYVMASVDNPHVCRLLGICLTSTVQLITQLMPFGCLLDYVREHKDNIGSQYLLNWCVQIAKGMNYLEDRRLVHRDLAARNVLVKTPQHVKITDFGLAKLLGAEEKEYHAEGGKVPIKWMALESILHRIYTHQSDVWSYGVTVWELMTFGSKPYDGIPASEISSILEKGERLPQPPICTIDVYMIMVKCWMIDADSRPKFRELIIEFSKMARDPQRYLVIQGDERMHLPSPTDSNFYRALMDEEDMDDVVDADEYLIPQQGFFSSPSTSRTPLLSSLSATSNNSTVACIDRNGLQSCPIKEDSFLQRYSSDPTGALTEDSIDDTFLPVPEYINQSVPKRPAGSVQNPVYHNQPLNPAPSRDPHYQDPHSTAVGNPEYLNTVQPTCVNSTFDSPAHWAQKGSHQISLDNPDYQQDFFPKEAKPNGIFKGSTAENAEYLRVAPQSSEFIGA

SMILES | IC50 (human CSNK1A1 [1]) [nM] | IC50 (human CSNK1A1 [2]) | IC50 [3, 4] [µM] | IC50 (human CSNK1D) [nM] | IC50 [3, 5] [µM]
CN1CCc2[nH]c(-c3ccnc(NC(=O)C(CC(F)F)c4ccccc4)c3)c(Nc3ccccc3)c2C1=O (single isomer, unassigned) [Example 34, N-[4-(3-anilino-5-methyl-4-oxo-4,5,6,7-tetrahydro-1H-pyrrolo[3,2-c]pyridin-2-yl)pyridin-2-yl]-4,4-difluoro-2-phenylbutanamide] | 2.68 | 16.5 nM | > 20 |  | 
CN1CCc2[nH]c(-c3ccnc(NC(=O)C(CCN4CCOCC4)c4ccccc4)c3)c(Nc3ccccc3)c2C1=O (single isomer, unassigned) [Example 31, N-[4-(3-anilino-5-methyl-4-oxo-4,5,6,7-tetrahydro-1H-pyrrolo[3,2-c]pyridin-2-yl)pyridin-2-yl]-4-(morpholin-4-yl)-2-phenylbutanamide] | 3.85 | 249 nM | > 20 |  | 
CC(C(=O)Nc1cc(-c2[nH]c3c(c2Nc2ccccc2)C(=O)NC(C)(C)C3)ccn1)c1ccc(F)cc1 (single isomer, unassigned; (+)) [Example 40, (+)-N-[4-(3-anilino-6,6-dimethyl-4-oxo-4,5,6,7-tetrahydro-1H-pyrrolo[3,2-c]pyridin-2-yl)pyridin-2-yl]-2-(4-fluorophenyl)propanamide] | 4.59 | 51.7 nM |  | 10.5 | 
CC1(C)Cc2[nH]c(-c3ccnc(NC(=O)Cc4ccc(F)cc4)c3)c(Nc3cccc(F)n3)c2C(=O)N1 [Example 127, 2-(4-fluorophenyl)-N-(4-{3-[(6-fluoropyridin-2-yl)amino]-6,6-dimethyl-4-oxo-4,5,6,7-tetrahydro-1H-pyrrolo[3,2-c]pyridin-2-yl}pyridin-2-yl)acetamide-1,1′,1″-phosphoryltripyrrolidine salt] |  |  | 16.9 |  | 
CN1CCc2[nH]c(-c3ccnc(NC(=O)C(CC(F)F)c4ccccc4)c3)c(Nc3ccccc3)c2C1=O (single isomer, unassigned) [Example 35, N-[4-(3-anilino-5-methyl-4-oxo-4,5,6,7-tetrahydro-1H-pyrrolo[3,2-c]pyridin-2-yl)pyridin-2-yl]-4,4-difluoro-2-phenylbutanamide] | 20.5 | 705 nM | 14.8 |  | 
CN(C)CCC(C(=O)Nc1cc(-c2[nH]c3c(c2Nc2ccccc2)C(=O)N(C)CC3)ccn1)c1ccccc1 (centres unmarked) [Example 38, N-[4-(3-anilino-5-methyl-4-oxo-4,5,6,7-tetrahydro-1H-pyrrolo[3,2-c]pyridin-2-yl)pyridin-2-yl]-4-(dimethylamino)-2-phenylbutanamide] | 14.6 | 1290 nM |  |  | 6.69
CN1CCc2[nH]c(-c3ccnc(NC(=O)C(CCN4CCOCC4)c4ccccc4)c3)c(Nc3ccccc3)c2C1=O (single isomer, unassigned) [Example 32, N-[4-(3-anilino-5-methyl-4-oxo-4,5,6,7-tetrahydro-1H-pyrrolo[3,2-c]pyridin-2-yl)pyridin-2-yl]-4-(morpholin-4-yl)-2-phenylbutanamide] | 72.2 | 4560 nM |  |  | > 20
Cc1ccccc1Nc1c(-c2ccnc(NC(=O)Cc3ccc(F)cc3)c2)[nH]c2c1C(=O)NC(C)(C)C2 [Example 113, N-{4-[6,6-dimethyl-3-(2-methylanilino)-4-oxo-4,5,6,7-tetrahydro-1H-pyrrolo[3,2-c]pyridin-2-yl]pyridin-2-yl}-2-(4-fluorophenyl)acetamide] |  |  | > 5.71 |  | 
CN1C(=O)c2c([nH]c(-c3ccnc(NC(=O)C(CC(F)F)c4ccc(F)cc4)c3)c2Nc2ccccc2)CC12CCC2 (single isomer, unassigned; enantiomer 1) [Example 161, (−)-N-[4-(3′-anilino-5′-methyl-4′-oxo-1′,4′,5′,7′-tetrahydrospiro[cyclobutane-1,6′-pyrrolo[3,2-c]pyridin]-2′-yl)pyridin-2-yl]-4,4-difluoro-2-(4-fluorophenyl)butanamide (Enantiomer 1)] |  | > 20000 nM and 19100 nM and 10600 nM and 14600 nM | > 20 | 360 | 
CN1CCc2[nH]c(-c3ccnc(NC(=O)Cc4ccc(N(C)C)cc4)c3)c(Nc3ccccc3)c2C1=O [Example 84, N-[4-(3-anilino-5-methyl-4-oxo-4,5,6,7-tetrahydro-1H-pyrrolo[3,2-c]pyridin-2-yl)pyridin-2-yl]-2-[4-(dimethylamino)phenyl]acetamide] | 2.64 | 217 nM |  | 8.5 | 
